# Measurements: publication PMC9025810, “Interaction of Antifungal Drugs with CYP3A- and OATP1B-Mediated Venetoclax Elimination” (Pharmaceutics, 2022)
# Read-outs that look alike come from different tables or passages of the source.
# Key:
# [1] = Venetoclax plasma pharmacokinetics in wild-type, CYP3A(−/−) and OATP1B2(−/−) mice; assay type: in vivo; conditions: for AUC(0-t) / Cmax: mouse, plasma, po, mean (SE)
# Protocol: In vivo experiments were performed with female and male mice from inbred wild-type strains (FVB, DBA) or with age- and sex-matched genetically-engineered mice with a deficiency of the Cyp3a locus (8-genes; […] The studies were conducted in accordance with the NIH's Guide for the Care and Use of Laboratory Animals and as approved by the University Laboratory Animal Resources Animal Care and Use Committee at Ohio State University (2015A00000101-R2; last approved 20 September 2021) and. Mice were housed in a temperature- and light-controlled environment with free access to water and a standard diet, excluding a 3-h fast before venetoclax administration. For in vivo studies, venetoclax was prepared for oral administration by dissolving the powder in DMSO (5%) and then adding PEG300 (50%), Tween-80 (5%), and water (40%) stepwise to create a suspension with a final concentration of 2 mg/mL. […] Based on our previous experience, all experiments were prospectively designed to have group sizes of five; however, pharmacokinetic data from two CYP3A(-/-) mice were excluded due to tolerability concerns, resulting in a final group size of three (Supplementary Table S1). Pharmacokinetic studies were performed as described previously. In brief, approximately 30 μL of whole blood was collected from each mouse at six time points between 5 min and 8 h after venetoclax administration; in most cases, samples were collected at 5 min, 15 min, 30 min, 1 h, 3 h, and 8 h. The first three samples were collected from a submandibular vein using a sterile 5-mm Goldenrod Animal Lancet and a heparinized capillary tube. The fourth and fifth samples were collected from the retro-orbital venous plexus using capillary tubes after anesthetizing the mice using 2% isoflurane. The terminal sample was collected into a 1.3-mL tube containing heparin by cardiac puncture using a syringe and needle. Whole blood samples were centrifuged at 13,000× g for 5 min. The plasma supernatant was then collected, immediately placed on dry ice, and stored at -80 °C until analysis. Venetoclax was quantified using a validated UHPLC-MS/MS analytical method; this method utilizes 5-μL sample volumes and has a lower limit of quantification of 5 ng/mL. Non-compartmental analysis was performed to determine the pharmacokinetic parameters of venetoclax using Phoenix WinNonlin version 8.0 (Certara, Princeton, NJ, USA). Peak plasma concentration (Cmax) was determined by visual inspection of the data from the log concentration versus time curves. The linear trapezoidal rule was used to obtain the area under the plasma concentration-time curve from time zero to the time of the last measurable concentration (AUC0-last).
# [2] = cited from earlier work
# [3] = molecular target: T1, OATP1B1 (Homo sapiens, UniProt Q9Y6L6); test: Competitive counterflow assay with 8-acetoxy-trisulfopyrene; assay type: cell-based; set-up: expressed in transfected cells
# T1 sequence (Q9Y6L6 1-691): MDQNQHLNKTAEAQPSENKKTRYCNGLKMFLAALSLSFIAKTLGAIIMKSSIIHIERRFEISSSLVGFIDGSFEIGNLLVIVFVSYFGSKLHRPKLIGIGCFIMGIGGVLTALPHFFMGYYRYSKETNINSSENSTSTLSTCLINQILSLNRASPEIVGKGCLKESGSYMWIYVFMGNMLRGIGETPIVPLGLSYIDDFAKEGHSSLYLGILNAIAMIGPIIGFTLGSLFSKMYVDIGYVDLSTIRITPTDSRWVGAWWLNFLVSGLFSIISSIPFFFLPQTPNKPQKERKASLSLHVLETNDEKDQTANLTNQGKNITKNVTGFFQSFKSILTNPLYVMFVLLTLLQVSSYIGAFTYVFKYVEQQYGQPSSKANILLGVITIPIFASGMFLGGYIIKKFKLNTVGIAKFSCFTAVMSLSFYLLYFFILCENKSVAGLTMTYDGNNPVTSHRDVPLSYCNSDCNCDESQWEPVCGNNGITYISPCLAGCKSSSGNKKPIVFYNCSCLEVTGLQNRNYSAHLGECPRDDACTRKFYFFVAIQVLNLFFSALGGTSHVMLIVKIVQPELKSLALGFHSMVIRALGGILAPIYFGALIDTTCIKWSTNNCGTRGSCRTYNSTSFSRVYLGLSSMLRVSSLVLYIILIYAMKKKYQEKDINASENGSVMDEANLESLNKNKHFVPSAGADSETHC
# Protocol: Competitive counterflow assays were performed with 8-acetoxy-trisulfopyrene, an activatable fluorogenic probe for OATP1B1, as described previously. In brief, cells expressing a vector or OATP1B1 were seeded in 96-well opaque plates in phenol-red free DMEM media with 10% FBS and induced with doxycycline for 24 h. On the day of the experiment, the media was removed, and the cells were washed three times with warm PBS. The cells were then incubated for 20 min at 37 °C with 100 µL of 5 µM 8-acetoxypyrene-1,3,6-trisulfonate uptake buffer (ACE; 125 mM NaCl, 4.8 mM KCl, 1.2 mM CaCl2, 1.2 mM KH2PO4, […], 25 mM 2-N-morpholino), ethanesulfonic acid, and 5.6 mM glucose, with the pH adjusted to 5.5). […] The fluorescence was measured at excitation and emission wavelengths of 460 nm and 510 nm, respectively, after 20 min of incubation to control for the number of cells.
# The plates were incubated for 20 min at 37 °C. In the final step, the supernatant was removed, and the cells were washed three times with 200 µL ice-cold PBS to stop the reaction. PBS was then removed and 200 µL of 0.1 N NaOH was added to each well to normalize the pH. The fluorescence was measured as described above after another 20 min incubation at room temperature. The levels of cell dye were reported as a percent of the measurement from cells containing ACE alone.
structure (smiles),measurement,setting,value
CC1(C)CCC(CN2CCN(c3ccc(C(=O)NS(=O)(=O)c4ccc(NCC5CCOCC5)c([N+](=O)[O-])c4)c(Oc4cnc5[nH]ccc5c4)c3)CC2)=C(c2ccc(Cl)cc2)C1 [Venetoclax],Venetoclax AUC Fold Increase,[1]; CYP3A(−/−) + ketoconazole 50 mg/kg versus vehicle-treated CYP3A(−/−),1.6 (versus vehicle-treated wild-type CYP3A(−/−)) fold
same,Venetoclax AUC Fold Increase,"[1]; CYP3A(−/−) + ketoconazole 50 mg/kg versus vehicle-treated CYP3A(−/−), listed as venetoclax",1.6 fold
same,Venetoclax AUC Fold Increase,[1]; female OATP1B2(−/−) versus wild-type DBA,2.0 (versus wild-type DBA) fold
same,Venetoclax AUC Fold Increase,"[1]; female OATP1B2(−/−) versus wild-type DBA, listed as venetoclax",2 fold
same,AUC(0-t),"[1]; female, CYP3A(−/−) knockout (FVB.129P2 background), 10 mg/kg, CYP3A(−/−), female, venetoclax 10 mg/kg PO, co-treatment None (control of micafungin experiment), read-out: Venetoclax AUC(0–8h)",10600 ng·h/mL
same,AUC(0-t),"[1]; female, DBA, 10 mg/kg, wild-type DBA, female, n=10, venetoclax 10 mg/kg PO, no co-treatment, read-out: Venetoclax AUC(0–8h)",3210 ng·h/mL
same,Cmax,"[1]; female, DBA, 10 mg/kg, wild-type DBA, n=10, venetoclax 10 mg/kg PO, no co-treatment",523 ng/mL
same,Cmax,"[1]; female, FVB, 10 mg/kg, Table S1: wild-type FVB, female, N=5, venetoclax 10 mg/kg PO, no co-treatment",1540 ng/mL
same,AUC(0-t),"[1]; female, FVB, 10 mg/kg, Table S1: wild-type FVB, female, N=5, venetoclax 10 mg/kg PO, no co-treatment, read-out: Venetoclax AUC(0-last)",7430 ng·h/mL
same,Cmax,"[1]; female, FVB, 10 mg/kg, wild-type FVB, female, venetoclax 10 mg/kg PO 30 min after ketoconazole 50 mg/kg PO",3080 ng/mL
same,AUC(0-t),"[1]; female, FVB, 10 mg/kg, wild-type FVB, female, venetoclax 10 mg/kg PO 30 min after ketoconazole 50 mg/kg PO, read-out: Venetoclax AUC(0–8h)",19700 ng·h/mL
same,AUC(0-t),"[1]; female, FVB, 10 mg/kg, wild-type FVB, female, venetoclax 10 mg/kg PO, co-treatment PEG400 (vehicle), read-out: Venetoclax AUC(0–8h)",6530 ng·h/mL
same,Cmax,"[1]; female, FVB, 10 mg/kg, wild-type FVB, venetoclax 10 mg/kg PO, co-treatment PEG400 (vehicle)",1030 ng/mL
same,Cmax,"[1]; female, FVB.129P2 CYP3A(-/-), 10 mg/kg, Table S1: CYP3A(-/-), female, N=3, venetoclax 10 mg/kg PO, no co-treatment",3400 ng/mL
same,AUC(0-t),"[1]; female, FVB.129P2 CYP3A(-/-), 10 mg/kg, Table S1: CYP3A(-/-), female, N=3, venetoclax 10 mg/kg PO, no co-treatment, read-out: Venetoclax AUC(0-last)",13700 ng·h/mL
same,Cmax,"[1]; female, FVB.129P2 CYP3A(−/−), 10 mg/kg, CYP3A(−/−), female, venetoclax 10 mg/kg PO 30 min after ketoconazole 50 mg/kg PO",2700 ng/mL
same,AUC(0-t),"[1]; female, FVB.129P2 CYP3A(−/−), 10 mg/kg, CYP3A(−/−), female, venetoclax 10 mg/kg PO 30 min after ketoconazole 50 mg/kg PO, read-out: Venetoclax AUC(0–8h)",17300 ng·h/mL
same,AUC(0-t),"[1]; female, FVB.129P2 CYP3A(−/−), 10 mg/kg, CYP3A(−/−), female, venetoclax 10 mg/kg PO, co-treatment PEG 400 (vehicle), read-out: Venetoclax AUC(0–8h)",10600 ng·h/mL
same,Cmax,"[1]; female, FVB.129P2 CYP3A(−/−), 10 mg/kg, CYP3A(−/−), venetoclax 10 mg/kg PO, co-treatment None (control of micafungin experiment)",1830 ng/mL
same,Cmax,"[1]; female, FVB.129P2 CYP3A(−/−), 10 mg/kg, CYP3A(−/−), venetoclax 10 mg/kg PO, co-treatment PEG 400 (vehicle)",1570 ng/mL
same,Cmax,"[1]; female, FVB.129P2 CYP3A(−/−), CYP3A(−/−), female, venetoclax 10 mg/kg PO 30 min after micafungin 100 mg/kg IV",2280 ng/mL
same,AUC(0-t),"[1]; female, FVB.129P2 CYP3A(−/−), CYP3A(−/−), female, venetoclax 10 mg/kg PO 30 min after micafungin 100 mg/kg IV, read-out: Venetoclax AUC(0–8h)",13600 ng·h/mL
same,AUC(0-t),"[1]; female, OATP1B2(−/−), 10 mg/kg, OATP1B2(−/−), female, n=10, venetoclax 10 mg/kg PO, no co-treatment, read-out: Venetoclax AUC(0–8h)",6480 ng·h/mL
same,Cmax,"[1]; female, OATP1B2(−/−), 10 mg/kg, n=10, venetoclax 10 mg/kg PO, no co-treatment",1070 ng/mL
same,Venetoclax AUC Fold Increase,"[1]; male OATP1B2(-/-) versus male wild-type DBA (Figure S3, Table S1)",1.7 fold
same,Cmax,"[1]; male, DBA, 10 mg/kg, Table S1: wild-type DBA, male, venetoclax 10 mg/kg PO, no co-treatment",958 ng/mL
same,AUC(0-t),"[1]; male, DBA, 10 mg/kg, Table S1: wild-type DBA, male, venetoclax 10 mg/kg PO, no co-treatment, read-out: Venetoclax AUC(0-last)",5270 ng·h/mL
same,Cmax,"[1]; male, OATP1B2(-/-), 10 mg/kg, Table S1: OATP1B2(-/-), male, venetoclax 10 mg/kg PO, no co-treatment",1610 ng/mL
same,AUC(0-t),"[1]; male, OATP1B2(-/-), 10 mg/kg, Table S1: OATP1B2(-/-), male, venetoclax 10 mg/kg PO, no co-treatment, read-out: Venetoclax AUC(0-last)",9200 ng·h/mL
same,Venetoclax AUC Fold Increase,"[1]; untreated CYP3A(-/-) versus untreated wild-type FVB, female (Figure S2, Table S1)",1.8 fold
same,Venetoclax AUC Fold Increase,[1]; vehicle-treated CYP3A(−/−) versus vehicle-treated wild-type FVB,1.6 (versus vehicle-treated wild-type FVB) fold
same,Venetoclax AUC Fold Increase,"[1]; vehicle-treated CYP3A(−/−) versus vehicle-treated wild-type FVB, listed as venetoclax",1.6 fold
same,Venetoclax AUC Fold Increase,[1]; wild-type FVB + ketoconazole 50 mg/kg versus vehicle-treated wild-type FVB,3.0 (versus vehicle-treated wild-type FVB) fold
same,Venetoclax AUC Fold Increase,"[1]; wild-type FVB + ketoconazole 50 mg/kg versus vehicle-treated wild-type FVB, listed as venetoclax",3 fold
same,Reduction of clearance in vivo,[2]; mice with a deficiency of all OATP1A and OATP1B type transporters,60%
same,DDI between venetoclax and ketoconazole (increase in venetoclax exposure),[2]; mice,~ 3 fold
same,Effect on fluorescence (cell dye level) in competitive counterflow,"[3]; 5 µM ACE, venetoclax 200 µM, cyclosporin A 10 µM, paraformaldehyde 0.5%, 20 min",significantly decreased fluorescence
same,Actual unbound concentration of venetoclax in counterflow experiments,[3]; nominal concentration 200 µM,< 10 µM
